Test results taken from patent US5541174A, “Analgesic method” (priority 1995, dated 1996).
Several values for one entry are separate records, joined by “and”; a condition that tells them apart may be missing. Identical values can stand only once.

Experiments:
[1] = test system: acetic acid-induced writhing mouse pain model; test: Naloxone reversal of analgesia in the acetic acid-induced writhing mouse pain model; assay type: in vivo; details: for ED50: p.o.
Procedure: (§1) Groups of 10 ICR male mice (Taisho Pharmaceutical Co. Research Center) were used to study each dose of every compound. Ligands or complexes were administered orally or subcutaneously in 0.1 ml of vehicle per 10 g of body weight 30 minutes before the intrapertioneal injection of 0.1 ml of 0.7% acetic acid solution per 10 g of body weight. Number of writhes were counted for each mouse during a period of 10 to 20 min after acetic acid injection. Inhibitory percent was calculated by comparison with the number of writhes in the non-treated control, vehicle-treated, and acetic acid-injected group. The ED50 value and 95% confidence limits were calculated from the inhibitory percent by the method of Litchfield and Wilcoxon.
(§2) All drugs were suspended with 5% gum arabic in saline solution or wetted with enough propylene glycol to give a final concentration of 4% propylene glycol and the wetted solid suspended in 1.4% polyvinyl alcohol in saline.
NaloxoneHCL (3 umol/kg. i.v., in saline, Endo Lab.) was administered 5
min. before acetic acid injection.

[2] = test system: adjuvant-induced arthritic pain in rats; test: Adjuvant-induced arthritic pain; assay type: in vivo, male Sprague-Dawley rats
Excerpt: 2. Adjuvant-induced arthritic pain as described in:
S. KUZNA, et al., Measurement of Arthritic Pain and Effects of Analgesics in the Adjuvant-Treated Rat, Chem. Pharm. Bull. 23, 1184-1191 (1975);
C. A. WINTER, et al., Analgesic Activity of Diflunisal in Rats with Hyperalygesia Induced by Freud's Adjuvant, J. Pharmacol. Exp. Ther. 211, 678-685 (1979; and
M. E. ROSENTHALE, et al., Adjuvant Arthritis:Immuno-Pathological and Hyperalgesic Features, Fed. Proced. 41, 2577-2582 (1982),
incorporated by reference herein.
Groups of 5-6 male Sprague-Dawley rats (Taisho Pharmaceutical Co. Research Center) weighing 140 to 160 g at the time of Mycobacterium butyricum (adjuvant, Difco Laboratories, Detroit, Mich.) injection were used to study each compound. Rats were injected intradermally at the base of the tail with 0.1 ml of a parafin oil suspension of 0.5 mg of heat-killed mycobacterium. Fifteen to 19 days later, drugs were administered orally or subcutaneously in 0.5 ml of vehicle per 100 g of body weight to rats showing the nociceptive reaction, vocalization following a gentle flexion of the tarsal-tibial joint of the inflamed hind-paw. Vocalization responses were measured every hour for 5 hours. […] The ED50 value and 95% confidence limits were calculated from the positive rate for non-treated controls, vehicle-treated adjuvant arthritic rats, by the method of Litchfield and Wilcoxin.
as §2

[3] = test system: acetic acid-induced writhing mouse pain model; test: Measurement of time of peak activity in the acetic acid-induced writhing mouse pain model; assay type: in vivo; details: for Inhibition %: 2 umol/kg p.o.
Procedure: as §1, with “Ligands or complexes were administered orally or subcutaneously in 0.1 ml of vehicle per 10 g of body weight 30 minutes before the intrapertioneal injection of 0.1 ml of 0.7% acetic acid solution per 10 g of body weight.” left out
as §2

[4] = test system: acetic acid-induced writhing mouse pain model; test: Comparison/potentiation of analgesic activity with morphine in the acetic acid-induced writhing mouse pain model; assay type: in vivo
Procedure: as §1

[5] = test system: acetic acid induced writhing in mice; test: Acetic acid-induced writhing test; assay type: in vivo, ICR male mice
Procedure: 1. Acetic acid-induced writhing test as described in Koster et al., "Acetic Acid for Analgesic Screening", Fed. Proc. 18, 412 (1959), incorporated by reference herein; and
as §1

[6] = oral, 5% gum arabic, 0.006 mmol/kg
[7] = oral, 5% gum arabic, 0.013 mmol/kg

SMILES: COc1ccc2c(c1)c(CC(=O)[O-])c(C)n2C(=O)c1ccc(Cl)cc1.COc1ccc2c(c1)c(CC(=O)[O-])c(C)n2C(=O)c1ccc(Cl)cc1.COc1ccc2c(c1)c(CC(=O)[O-])c(C)n2C(=O)c1ccc(Cl)cc1.COc1ccc2c(c1)c(CC(=O)[O-])c(C)n2C(=O)c1ccc(Cl)cc1.[Cu+2].[Cu+2] [Cu(II)2 (indomethacin)4]
- % Inhibition ([1]; 0.5 umol/kg p.o., with Naloxone HCl 3 umol/kg i.v.): 19%
- % Inhibition ([1]; 0.5 umol/kg p.o., without naloxone): 43%
- % Inhibition ([1]; 1 umol/kg p.o., with Naloxone HCl 3 umol/kg i.v.): 52%
- % Inhibition ([1]; 1 umol/kg p.o., without naloxone): 62%
- % Inhibition ([1]; 2 umol/kg p.o., with Naloxone HCl 3 umol/kg i.v.): 69%
- % Inhibition ([1]; 2 umol/kg p.o., without naloxone): 76%
- reduction of induced analgesia by Naloxone ([1]; Table VIII): reduction
- ED50 ([1]; with Naloxone HCl 3 umol/kg i.v.): 1.1 µmol/kg
- ED50 ([1]; without naloxone): 0.6 µmol/kg
- ED50 ([2]; oral, 5% gum arabic in saline): 0.007 mmol/kg
- % Inhibition ([2]; oral, 5% gum arabic, 0.003 mmol/kg): 27%
- % Inhibition [2, 6]: 47%
- % Inhibition [2, 7]: 70%
- ED50 ([2]; oral, PG-PVA in saline): 0.002 mmol/kg
- % Inhibition ([2]; oral, PG-PVA, 0.001 mmol/kg): 20%
- % Inhibition ([2]; oral, PG-PVA, 0.002 mmol/kg): 40%
- % Inhibition ([2]; oral, PG-PVA, 0.003 mmol/kg): 87%
- ED50 ([2]; s.c., PG-PVA in saline): 0.002 mmol/kg
- % Inhibition ([2]; s.c., PG-PVA, 0.001 mmol/kg): 17%
- % Inhibition ([2]; s.c., PG-PVA, 0.002 mmol/kg): 43%
- % Inhibition ([2]; s.c., PG-PVA, 0.003 mmol/kg): 60%
- Inhibition % ([3]; 30 min): 54%
- Inhibition % ([3]; 60 min): 49%
- Inhibition % ([3]; 120 min): 43%
- Inhibition % ([3]; 180 min): 68%
- Inhibition % ([3]; 240 min): 33%
- duration of analgesic effect ([3]; Table VII): prolonged duration of analgesic effect
- % Inhibition ([4]; 0.5 umol/kg, orally): 21%
- % Inhibition ([4]; 1.0 umol/kg, orally): 46%
- % Inhibition ([4]; 2.0 umol/kg, orally): 54%
- potentiation of opioid analgesia ([4]; Table IX): potentiation of opioid analgesia
- ED50 ([4]; complex alone, orally): 1.5 µmol/kg
- ED50 ([5]; oral, 5% gum arabic in saline): 0.012 mmol/kg
- analgesic effectiveness versus parent ligand ([5]; oral, 5% gum arabic in saline): more effective than their parent ligands
- % Inhibition [5, 6]: 33%
- % Inhibition [5, 7]: 50%
- % Inhibition ([5]; oral, 5% gum arabic, 0.025 mmol/kg): 73%
- analgesic effectiveness versus parent ligand ([5]; oral, PG-PVA): more effective than their parent ligands
- ED50 ([5]; oral, PG-PVA in saline): 0.002 mmol/kg
- % Inhibition ([5]; oral, PG-PVA, 0.001 mmol/kg): 38%
- % Inhibition ([5]; oral, PG-PVA, 0.002 mmol/kg): 53%
- % Inhibition ([5]; oral, PG-PVA, 0.004 mmol/kg): 75%
- ED50 ([5]; s.c., PG-PVA in saline): 0.002 mmol/kg and 0.003 mmol/kg
- % Inhibition ([5]; s.c., PG-PVA, 0.002 mmol/kg): 34%
- % Inhibition ([5]; s.c., PG-PVA, 0.003 mmol/kg): 53%
- % Inhibition ([5]; s.c., PG-PVA, 0.006 mmol/kg): 70%
